Data published in patent US20060154952A1, “Pharmaceutical compositions comprising a combination of rapamycin or its derivative and pimecrolimus for the treatment of inflammation-and ummunologically-mediated diseases” (priority 2003, published 2006).

Assays:
Type in all cases: in vivo
SCID-IBD mice [1] = assay: SCID-IBD mouse model: lymphocyte numbers (CD3+CD4+) by FACS in blood, spleen and MLN; conditions: for lymphocyte numbers in single treatment groups: study 2: ASM 30 mg/kg/d or Compound A 0.1 mg/kg/d administered alone
Method: (§1) SCID mice are first reconstituted with the CD4^+CD45RB^HI T cells and then treated with test compounds or vehicle as controls. As test compounds Compound A (RAD) and pimecrolimus (ASM) are used. 3 separate studies using different dosaging are carried out. In each study both compounds are administered alone and combined. All 3 studies follow the same basic protocol of 4 groups of mice with one group receiving, by daily oral gavage, both vehicles (placebo), one group Compound A alone, one group ASM alone, and one group a combination of Compound A and pimecrolimus, from day 1 to day 29 after cell transfer.
Blood is also taken into 10 mM EDTA for preparation for FACS analysis.
The spleen and MLN are taken from each mouse, weighed and processed for FACS analysis of single cell suspensions.
(§2) Specimens are embedded in paraffin, sections (3 μm thick) are cut and stained with H & E. Four colour FACS analysis is performed on cell suspensions prepared from the blood, spleen and mesenteric lymph nodes (MLNS) of each mouse.
Antibodies are obtained from Pharmingen. Cells which are double positive for CD3 and CD4 are counted as lymphocytes. Cells positive for Ly-6G (myeloid differentiation antigen) and negative for CD3 or CD4 are neutrophils (also their cellular characteristics (forward and side scatter) distinguishes them from the other cells).
The number of cells per sample is calculated from the total cell number in each cell suspension and the % of positively identified (samples analysed on a FACS Calibur® using CellQuest Pro® software) cells per sample.
(§3) The mean of these values for a group of mice can thus be calculated. To process some of the data further, the determined values are adjusted by subtracting the background value found in non-transferred mice and calculating the % reduction, or indeed increase, in mean cell number, relative to the placebo treated group.

SCID-IBD mice [2] = assay: SCID-IBD mouse model: serum haptoglobin levels; conditions: for reduction of serum haptoglobin levels: ASM at 60 and 30 mg/kg/d, Compound A at 0.1 or 0.05 mg/kg/d, alone; for % reduction of serum haptoglobin: low dose study: ASM 10 mg/kg/d, Compound A 0.05 mg/kg/d, alone or combined
Method: as §1
The mice are anaesthetized at the end of the study and blood withdrawn via cardiac puncture for separation into serum which is frozen and stored at −80°.
as §3
(§4) The increasing T cell population with time also results in an increase in size of lymphoid organs which are otherwise comparatively small in the non-transferred SCID mouse. By day 28 post T cell transfer the inflammation is relatively consistent within a group of mice and this has been adopted as the shortest time where accurate effects of treatment with test compounds can be measured. The effects of a range of doses of Compound A and ASM as single preventative compounds are, in brief, comparative effective dose ranges are found to be from 30 to 100 mg/kg/d administration of ASM and 0.1 to 1 mg/kg/d of Compound A. In the present tests sub-maximal doses of each compounds are used and the effect of the single and combined treatment in the same study is determined.

SCID-IBD mice [3] = assay: SCID-IBD mouse model: loss of body weight; conditions: for effect on the loss of body weight: either compound alone at the dosages used (ASM 60, 30, 10 mg/kg/d; Compound A 0.1, 0.05 mg/kg/d), daily oral gavage
Source text: (§5) Female BALB/cJ and C.B.17 scid/scid mice (Fox Chase SCID®, Bomholtgaard, Denmark) are maintained in ventilated cage racks (Micro-vent type 84-II, Allentown Caging Equipment Co., Allentown, N.J., USA) under specific pathogen free conditions. The experimental procedures performed on the mice are authorized under the license number MA 1048/00 (Magistratabteilung No. 58, Amt der Wiener Landesregierung).
Briefly, CD4^+CD45RB^HI T lymphocytes are isolated from BALB/c mouse spleens by two-colour FACS-sorting through a live/dead gate and injected (2×10^5 cells/mouse, i.p.) into 6-9 week old female SCID mice. Negative control mice receive PBS i.p. and one such mouse is in each cage as a sentinel to monitor possible infections in this immunodeficient colony (PBS-mice).
SCID mice are first reconstituted with the CD4^+CD45RB^HI T cells and then treated with test compounds or vehicle as controls. As test compounds Compound A (RAD) and pimecrolimus (ASM) are used. 3 separate studies using different dosaging are carried out. In each study both compounds are administered alone and combined. […]
The body weight of each mouse is monitored throughout and at the end of the study mice are weighed.
All data presented as mean values are qualified by an s.e.m. value. The body weight data are analysed either by repeated measures analysis or by first finding the mean AUC and then applying an ANOVA multiple comparison test with Tukey post hoc correction. […] All other data are first analysed for normal distribution and then the ANOVA test for multiple comparison is applied. […]
The first visible symptom resulting from the transfer of disease causing CD4^+CD45RB^HI T cells to SCID mice is a severe loss of body weight, usually significant 21 days after transfer. […] In the 3 individual studies described herein, the mean % difference in body weight between the non-transferred and the vehicle-treated mice is calculated to be 16.3±1.8%.

SCID-IBD mice [4] = assay: SCID-IBD mouse model: colon inflammation, histological severity score; conditions: for effect on colon inflammation (severity scores): low dose study: ASM 10 mg/kg/d, Compound A 0.05 mg/kg/d, alone or combined
Method: as §1
A photographic picture is taken of the opened abdominal cavity and then a 1 cm long piece of the colon, just above the rectum, is fixed in formalin for histology.
as §2
All data presented as mean values are qualified by an s.e.m. value. The body weight data are analysed either by repeated measures analysis or by first finding the mean AUC and then applying an ANOVA multiple comparison test with Tukey post hoc correction. Histology scores are represented as the mean severity score and compared with a Wilcoxon-Mann-Whitney test with exact p-values (StatXact-5 software) and Bonferroni post hoc correction factor. All other data are first analysed for normal distribution and then the ANOVA test for multiple comparison is applied. Statistical significance is taken as p<0.05.
The inflammation in the colon of SCID-IBD mice shares many features observed in lesional tissue of a Crohn's diseased colon. In order to examine the intestinal mucosal damage in SCID-IBD mice a histological examination of the colon sections was performed according to defined morphological parameters. The severe colitis associated with this model of IBD is characterized with a massive cellular infiltrate which in places involves nearly all of the submucosa. The infiltrate is mixed and comprised of lymphocytes, macrophages, neutrophils and some eosinophils. Also evident is the loss of crypt architecture, extensive elongation and epithelial hyperplasia. A severely inflamed colon section will also have crypt abscesses. Numeric scores were given as per the following scheme: a score of 0 to 3 is given for the leucocyte infiltrate where 1 is mild, 2 is moderate and 3 is a severe infiltrate including the submucosal layer. A score of 0 to 2 is given for Goblet cell depletion where 2 is given for a complete lack of the alcian blue staining, 0 is given for a normal amount of staining and 1 is intermediate. […] The maximum possible score is 8 and (PBS)-mice are scored 0. […]

SCID-IBD mice [5] = assay: SCID-IBD mouse model: overall disease inhibition / effective dose; conditions: single treatment groups: ASM 60, 30, 10 mg/kg/d; Compound A 0.1, 0.05 mg/kg/d
Source text: as §5
Briefly, CD4^+CD45RB^HI T lymphocytes are isolated from BALB/c mouse spleens by two-colour FACS-sorting through a live/dead gate and injected (2×10^5 cells/mouse, i.p.) into 6-9 week old female SCID mice. […]
as §4

SMILES | reduction in lymphocyte numbers in MLN (SCID-IBD mice [1]; study 1: ASM 60 mg/kg/d, alone or combined with Compound A 0.1 mg/kg/d) | lymphocyte numbers in single treatment groups (SCID-IBD mice [1]) | reduction of serum haptoglobin levels (SCID-IBD mice [2]) | % reduction of serum haptoglobin (SCID-IBD mice [2]) | inhibition of weight loss (SCID-IBD mice [3]; ASM alone 60 mg/kg/d, daily oral gavage day 1 to 29) | effect on the loss of body weight (SCID-IBD mice [3]) | effect on colon inflammation (histology severity score) (SCID-IBD mice [4]; ASM981 60 mg/kg/d alone) | effect on colon inflammation (severity scores) (SCID-IBD mice [4]) | disease inhibition, single treatment (SCID-IBD mice [5]) | effects on lymphocyte numbers (SCID-IBD mice [1]; Compound A 0.1 mg/kg/d alone) | activity on colon inflammation (SCID-IBD mice [4]; Compound A alone at doses below 0.5 mg/kg/d)
CC[C@@H]1/C=C(\C)C[C@H](C)C[C@H](OC)[C@H]2O[C@@](O)(C(=O)C(=O)N3CCCC[C@H]3C(=O)O[C@H](/C(C)=C/[C@@H]3CC[C@H](Cl)[C@H](OC)C3)[C@H](C)[C@@H](O)CC1=O)[C@H](C)C[C@@H]2OC [ASM, {[1E-(1R,3R,4S)]1R,9S,12S,13R,14S,17R,18E,21S,23S,24R,25S,27R}-12-[2-(4-chloro-3-methoxycyclohexyl)-1-methylvinyl]-17-ethyl-1,14-dihydroxy-23,25-dimethoxy-13,19,21,27-tetramethyl-1,28,dioxa-4-azatricyclo [22.3.1.0(4,9)]octacos-18-ene-2,3,10,16-tetraone] | 73.5% | not reduced | potently reduces | 32.7% | significant, but low inhibition of weight loss | only minor effects | significant effect | very little effect | significant effects | – | –
CO[C@H]1C[C@@H]2CC[C@@H](C)[C@@](O)(O2)C(=O)C(=O)N2CCCC[C@H]2C(=O)O[C@H]([C@H](C)C[C@@H]2CC[C@@H](OCCO)[C@H](OC)C2)CC(=O)[C@H](C)/C=C(\C)[C@@H](O)[C@@H](OC)C(=O)[C@H](C)C[C@H](C)/C=C/C=C/C=C/1C [Compound A, 40-O-(2-hydroxyethyl)-rapamycin] | – | not reduced | very weakly active | 27.4% | – | only minor effects | – | very little effect | – | only weal, if any effects | not significantly active
